Assay results: patent US8940497B2, “Enzyme regulating ether lipid signaling pathways” (The Scripps Research Institute, priority 2006, dated 2015)
“Also recorded” adds a separate entry of the source.

Experiments:
[1] = tested on: background 2-thioacetyl MAGE hydrolyzing activity in membrane proteomes; assay: Background 2-thioacetyl MAGE hydrolyzing activity in membrane proteomes; assay type: biochemical; details: FIG. 14
Experimental: KIAA1363-transfected cell lines were used for substrate-based enzyme activity assays. Membrane proteomes were adjusted to 0.5 mg/ml in 50 mM tris pH 7.4 buffer containing 5 mM CHAPS detergent. Immediately prior to the assay, 5,5′-dithiobis-(2-nitrobenzoic acid) (DTNB, Sigma) was added at 0.5 mM to the membrane proteome to prepare the Assay Buffer. For analysis of inhibitors, 1 ul of a 50× inhibitor solution in DMSO was added to 48 ul of Assay Buffer and preincubated for 20 min at RT. The substrate 2-thioacetyl MAGE (Cayman Chemical) was prepared by evaporating off the original solvent under nitrogen and redissolving the residue in DMSO. 1 ul of 5 mM 2-thioacetyl MAGE stock is added to each assay well to begin the assay. Absorbance is determined at A405 nm.
The background 2-thioacetyl MAGE hydrolyzing activity in membrane proteomes that is not inhibited by AS-115 is inhibited by the broad serine protease inhibitor PMSF (FIG. 14). The IC50 of AS-115 was measured using the 2-thioacetyl MAGE substrate-based assay with Flag-KIAA1363/293T cell membrane proteome (FIG. 15).

SKOV-3 cells [2] = assay: Untargeted LC-MS comparative metabolomics of inhibitor-treated cells; assay type: cell-based, human; details: 4 h
Experimental: (§1) The following LC-MS conditions were used for analysis of cancer cell metabolomes. Cell pellets were harvested by scraping, isolated by centrifugation at 1,400×g, and dounce-homogenized in 4 mL of a 2:1:1 mixture of chloroform:methanol:Tris buffer (50 mM Tris*HCl, pH 8.0). Samples that were analyzed by targeted LC-MS were homogenized in the presence of the following synthetic standards: C15:0 MAG (50 pmol), C17:0 LPA (50 pmol), and 13C-C16:0 MAGE (25 pmol). Organic and aqueous layers were separated by centrifugation at 1,260×g for 5 min. The organic layer was then removed, dried under a stream of N2, and re-solubilized in 100 μL of chloroform, of which 30 μL was analyzed by LC-MS. Extraction of LPA was performed by acidifying the remaining aqueous layer to a final concentration of 5% formic acid, followed by the addition of 2 mL of chloroform. The mixture was vortexed, the organic layer removed, concentrated to dryness, and dissolved in 100 μL of chloroform, of which 30 μL was analyzed by LC-MS.
(§2) LC-MS analysis was performed using an Agilent 1100 LC-MSD SL instrument. […] Mobile phase A was composed of a 95:5 ratio of water:methanol and mobile phase B consisted of 2-propanol, methanol, and water in a 60:35:5 ratio. Solvent modifiers such as 0.1% formic acid and 0.1% ammonium hydroxide were used to assist ion formation as well as improve the LC resolution in both positive and negative ionization modes respectively. The flow rate for each run started at 0.1 mL/min for 5 min, to alleviate backpressure associated with injecting chloroform. The gradient started at 0% B and increased linearly to 100% B over the course of 40 min with a flow rate of 0.4 mL/min, followed by an isocratic gradient of 100% B for 7 min before equilibrating for 8 min at 0% B with a flow rate of 0.5 mL/min.
(§3) MS analysis was performed with an electrospray ionization (ESI) source. The capillary voltage was set to 3.0 kV and the fragmentor voltage to 100V. The drying gas temperature was 350° C., the drying gas flow rate was 10 L/min, and the nebulizer pressure was 35 psi. Untargeted data was collected using a mass range of 200-1000 Da and exported as common data format (.CDF) files for computational analysis. Differentially expressed metabolites between sample pairs were identified using the XCMS analyte profiling software (http://metlin/download) that aligns mass peaks from two LC-MS traces and quantifies the relative intensities of global metabolites (5). Significant inhibitor-sensitive peak changes were confirmed by manual quantification using the area under the peak normalized to total ion current. Targeted LC-MS measurements were made using selected ion monitoring (SIM). Peaks were quantified by measuring the area under the peak and normalized to an internal standard (C15:0 MAG) or endogenous lipid (palmitic acid). Absolute MAGE levels were estimated by comparison to a 13C-MAGE standard.
(§4) Human ovarian cancer cell lines were obtained form the National Cancer Institute's Developmental Therapeutics Program. The melanoma lines C8161 and MUM-2B were obtained form Mary Hendrix. Cells were maintained in RPMI medium 1640 with 10% (v/v) fetal calf serum at 37° C. in a humidified atmosphere of 5% CO2/95% air. At approximately 80% confluency, cells were trypsinized, counted with the aid of a hemocytometer, and 2.5×10^6 cells were plated in 6 cm dishes. 20 h after plating cells were washed twice with PBS and supplemented with serum free RPMI containing 0.5% BSA (Sigma)(BSA-RPMI) with AS115 (0.01-10 μM) or vehicle (DMSO) at 0.1%. After incubation for 4 h the cells were harvested and analyzed by ABPP or LC-MS.
These experiments were performed using the method of untargeted liquid chromatography-mass spectrometry (LC-MS) for comparative metabolomics. Cells were treated with AS115 (10 μM) or DMSO for 4 h and analyzed by untargeted LC-MS methods. […] Relative mass signals are shown in Table 1, represented as the average values and standard error for three independent experiments.

SKOV-3 cells [3] = assay: Targeted LC-MS analysis of lipid levels in inhibitor-treated cells; assay type: cell-based, human
Experimental: as §1, §2, §3, §4
By extension, the m/z 345 and 347 metabolites were interpreted to represent the C18:1 and C18:0 MAGEs, respectively. […] MAGE levels were measured by targeted LC-MS analysis of SKOV-3 cells treated with AS115 (5 μM) or DMSO for 4 h using a 13C-C16:0 MAGE internal standard. Values are represented as pmol/10^6 cells. […]

C8161 melanoma cells = assay: LC-MS MAGE lipid levels in inhibitor-treated melanoma cells; assay type: cell-based, human; details: compared to DMSO controls
Experimental: as §1, §2
(§5) MS analysis was performed with an electrospray ionization (ESI) source. […] Differentially expressed metabolites between sample pairs were identified using the XCMS analyte profiling software (http://metlin/download) that aligns mass peaks from two LC-MS traces and quantifies the relative intensities of global metabolites (5). Significant inhibitor-sensitive peak changes were confirmed by manual quantification using the area under the peak normalized to total ion current. […] Peaks were quantified by measuring the area under the peak and normalized to an internal standard (C15:0 MAG) or endogenous lipid (palmitic acid). […]
(§6) Human ovarian cancer cell lines were obtained form the National Cancer Institute's Developmental Therapeutics Program. […] At approximately 80% confluency, cells were trypsinized, counted with the aid of a hemocytometer, and 2.5×10^6 cells were plated in 6 cm dishes. […] After incubation for 4 h the cells were harvested and analyzed by ABPP or LC-MS. […]

MUM-2B melanoma cells = assay: as above; assay type: cell-based, human; details: compared to DMSO controls
Experimental: as §1, §2, §5, §6

[4] = tested on: other serine hydrolase activities; assay: In situ competitive ABPP with FP-rhodamine, other serine hydrolases; assay type: cell-based, human; details: SKOV-3 cells treated in culture with AS115 (0-10 μM), 4 h
Experimental: as §4
[…]. Cells were washed twice and scraped in ice-cold PBS. […] Proteomes protein concentrations were determined by a protein assay kit (Bio-Rad), adjusted to a final concentration of 1 mg/mL in Tris buffer, and treated with 2 μM FP-rhodamine for 30 min at room temperature (50 μL total reaction volume). […] Reactions were quenched with one volume of standard 2×SDS/PAGE loading buffer (reducing), separated by SDS/PAGE (10% acrylamide) and visualized in-gel with a Hitachi FMBio Ile flatbed fluorescence scanner (MiraiBio). Integrated band intensities were calculated for the labeled proteins and averaged from 3 independent cell samples to determine the level of each enzyme activity.

SKOV-3 cells [5] = assay: Metabolic labeling of SKOV-3 cells with 13C-2-acetyl MAGE; assay type: cell-based, human; details: 10 μM 13C-2-acetyl MAGE, 1 h
Experimental: Cells were cultured and maintained as described above. Cells used for 13C-2-acetyl MAGE experiments were incubated in BSA-RPMI containing inhibitor or vehicle for […]. BSA-RPMI medium was then removed, supplemented with 10 μM 13C-2-acetyl MAGE or DMSO, and re-applied to cells. After incubation for 1 h the cells were harvested and metabolomes were analyzed by LC-MS. 13C-MAGE experiments were conducted by addition of 13C-MAGE or DMSO containing BSA-RPMI directly after washing with PBS. Cells were then incubated for 4 h, harvested, and analyzed by LC-MS.

## CCCCOCC1CCCCC1COCCNC(=O)Oc1ccccc1F (centres unmarked) [AS115]
[1]
  Background 2-thioacetyl MAGE hydrolyzing activity: not inhibited
SKOV-3 cells [2]; 10 μM
  Levels of lipophilic metabolites (m/z 317, 345, and 347): substantial reduction
  Levels of typical lipid species (free fatty acids, phospholipids, ceramides, monoacylglycerides): none of which were significantly altered
SKOV-3 cells [2]; AS115 10 μM or DMSO
  Relative mass signal DMSO/AS115, Ceramide C16: 0.53
  Relative mass signal DMSO/AS115, Ceramide C18: 0.73
  Relative mass signal DMSO/AS115, FFA C14: 0.69
  Relative mass signal DMSO/AS115, FFA C16: 0.69
  Relative mass signal DMSO/AS115, FFA C18: 0.76
  Relative mass signal DMSO/AS115, FFA C18:1: 0.56
  Relative mass signal DMSO/AS115, FFA C20:4: 1.04
  Relative mass signal DMSO/AS115, MAG C16: 1.00
  Relative mass signal DMSO/AS115, MAG C18:1: 0.83
  Relative mass signal DMSO/AS115, PA C32: 1.01
  Relative mass signal DMSO/AS115, PA C34: 1.41
  Relative mass signal DMSO/AS115, PA C34:1: 0.95
  Relative mass signal DMSO/AS115, PA C36:1: 0.99
  Relative mass signal DMSO/AS115, PA C36:2: 0.74
  Relative mass signal DMSO/AS115, PC C32: 1.07
  Relative mass signal DMSO/AS115, PC C34: 0.96
  Relative mass signal DMSO/AS115, PC C34:1: 1.01
  Relative mass signal DMSO/AS115, PC C36:1: 0.68
  Relative mass signal DMSO/AS115, PC C36:2: 1.07
  Relative mass signal DMSO/AS115, PE C32: 1.13
  Relative mass signal DMSO/AS115, PE C34: 0.94
  Relative mass signal DMSO/AS115, PE C34:1: 0.84
  Relative mass signal DMSO/AS115, PE C36:1: 0.94
  Relative mass signal DMSO/AS115, PE C36:2: 0.61
  Relative mass signal DMSO/AS115, PG C32: 0.78
  Relative mass signal DMSO/AS115, PG C34: 0.95
  Relative mass signal DMSO/AS115, PG C34:1: 0.98
  Relative mass signal DMSO/AS115, PG C36:1: 0.89
  Relative mass signal DMSO/AS115, PG C36:2: 1.04
  Relative mass signal DMSO/AS115, PS C32: 1.06
  Relative mass signal DMSO/AS115, PS C34: 1.02
  Relative mass signal DMSO/AS115, PS C34:1: 0.96
  Relative mass signal DMSO/AS115, PS C36:1: 0.99
  Relative mass signal DMSO/AS115, PS C36:2: 1.13
SKOV-3 cells [2]; AS115 10 μM or DMSO, p<0.001
  Relative mass signal DMSO/AS115, MAGE C16: 5.29
  Relative mass signal DMSO/AS115, MAGE C18: 5.86
  Relative mass signal DMSO/AS115, MAGE C18:1: 4.42
SKOV-3 cells [3]
  Basal levels of 2-acetyl MAGE: not significantly altered
  Basal levels of PAF: not significantly altered
SKOV-3 cells [3]; 5 μM, 4 h, 13C-C16:0 MAGE internal standard, DMSO 12.1 ± 0.4
  Absolute level of MAGE lipid C18:1: 4.0 ± 0.7 pmol/10^6 cells
SKOV-3 cells [3]; 5 μM, 4 h, 13C-C16:0 MAGE internal standard, DMSO 39.5 ± 3.7
  Absolute level of MAGE lipid C18:0: 7.6 ± 2.3 pmol/10^6 cells
SKOV-3 cells [3]; 5 μM, 4 h, 13C-C16:0 MAGE internal standard, DMSO 94.7 ± 6.6
  Absolute level of MAGE lipid C16:0: 19.3 ± 2.2 pmol/10^6 cells
SKOV-3 cells [3]; compared to DMSO controls
  Levels of MAGE lipids: significantly lowered; also recorded: reduce
SKOV-3 cells [3]; vs vehicle, FIG. 7B
  Levels of alkyl-LPA: reduce
  Levels of alkyl-LPC: reduce
C8161 melanoma cells
  Levels of MAGE lipids: significantly reduced
MUM-2B melanoma cells
  Levels of MAGE lipids: significantly reduced
[4]
  IC50: > 10 µM
SKOV-3 cells [5]
  Levels of 2-acetyl MAGE as judged by metabolic labeling: significantly stabilized
  PAF level in metabolic labeling experiments: accumulation
